From patent publication US20240376056A1, “PHENYL ACETAMIDE BASED IL-17A MODULATORS AND USES THEREOF” (DiCE Alpha, Inc., priority 2021, published 2024) come the findings set out here.

For the assay, the target named is T1, IL-17A/A (Homo sapiens, UniProt Q16552).
T1 construct: purchased Genscript Z03228
T1 sequence (Q16552 24-155): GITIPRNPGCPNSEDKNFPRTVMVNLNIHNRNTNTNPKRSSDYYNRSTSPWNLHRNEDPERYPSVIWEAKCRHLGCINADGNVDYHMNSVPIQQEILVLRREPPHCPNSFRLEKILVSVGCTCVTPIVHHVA
In words: HEK-Blue IL-17A/A inhibition assay (SEAP reporter). It counts as cell-based. Particulars: HEK-Blue cells (HEK 293 expressing IL-17RA, IL-17RC, Act1); IL-17A/A stimulation; 20 hours; SEAP read at A630; 4-parameter fit. Put shortly: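 HEK 293 cells engineered with IL-17RA, IL-17RC and Act1 (NFκB-driven SEAP) given titrated compound (top final 10, 1 or 0.3 uM; 0.1% DMSO) just before IL-17A/A, then incubated 20 h. SEAP in media developed with Quanti-Blue, read at A630; IC50 by 4-parameter nonlinear fit.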

The IC50 is the concentration at which inhibition is half-maximal.

The structures appear in SMILES notation.

For `CC(C)n1nccc1C(=O)N[C@H](C(=O)Nc1ccc([C@H](C)C(=O)N2C[C@@H](F)[C@@H](F)C2)cc1F)C(C1CC1)C1CC1` [Compound 40, N-((S)-1,1-dicyclopropyl-3-((4-((S)-1-((3S,4R)-3,4-difluoropyrrolidin-1-yl)-1-oxopropan-2-yl)-2-fluorophenyl)amino)-3-oxopropan-2-yl)-1-isopropyl-1H-pyrazole-5-carboxamide], the IC50 lay in the range of 100 to 1000 nM.

In the case of `CC(C)n1nccc1C(=O)N[C@H](C(=O)Nc1ccc(C(CO)C(=O)NCC(F)(F)F)cc1F)C(C1CC1)C1CC1` (stereo partly drawn) [Compound 168, N-((2S)-1.1-dicyclopropyl-3-((2-fluoro-4-(3-hydroay-1-oxo-11-((2,2,2-trifluoroethyl)amino)propan-2-yl)phenyl)amino)-3-oxopropan-2-yl)-1-isopropyl-1H-pyrazole-5-carboxamide], the IC50 was in the range of 100 to 1000 nM.

Consider `CC(C)n1nccc1C(=O)N[C@H](C(=O)Nc1ccc([C@H](C)C(=O)N2CCOc3ccccc3C2C(F)(F)F)cc1F)C(C1CC1)C1CC1` (stereo partly drawn) [Compound 56, N-((2S)-1,1-dicyclopropyl-3-((2-fluoro-4-((2S)-1-oxo-1-(5-(trifluoromethyl)-2,3-dihydrobenzo[f][1,4]oxazepin-4(5H)-yl)propan-2-yl)phenyl)amino)-3-oxopropan-2-yl)-1-isopropyl-1H-pyrazole-5-carboxamide], for which the IC50 fell in the range of 100 to 1000 nM.

As for `CCn1nccc1C(=O)N[C@H](C(=O)Nc1ccc([C@H](C)C(=O)N2CCC[C@H]2C(F)(F)F)cc1F)C(C1CC1)C1CC1` [Compound 11, N-((S)-1,1-dicyclopropyl-3-((2-fluoro-4-((S)-1-oxo-1-((S)-2-(trifluoromethyl)pyrrolidin-1-yl)propan-2-yl)phenyl)amino)-3-oxopropan-2-yl)-1-ethyl-1H-pyrazole-5-carboxamide], the IC50 was under 100 nM.

For `CC(C(=O)NCC(F)(F)F)c1cc(F)c(NC(=O)[C@@H](NC(=O)c2ccnn2C(C)C)C(C2CC2)C2CC2)cc1N(C)C` (some centres unmarked) [Compound 214], the concentration for half-maximal inhibition (IC50) was over 1000 nM.

For the compound `C[C@H](C(=O)NCC(F)(F)F)c1ccc(NC(=O)[C@@H](NC(=O)c2ccnn2CCn2ccnc2)C(C2CC2)C2CC2)c(F)c1` [Compound 95, -(2-(1H-imidazol-1-yl)ethyl)-N-((S)-1,1-dicyclopropyl-3-((2-fluoro-4-((S)-1-oxo-1-((2,2,2-trifluoroethyl)amino)propan-2-yl)phenyl)amino)-3-oxopropan-2-yl)-1H-pyrazole-5-carboxamide], the half-inhibitory concentration (IC50) was in the range of 100 to 1000 nM.

Turning to `CC(=O)NC1CCN(C(=O)[C@@H](C)c2ccc(NC(=O)[C@@H](NC(=O)c3ccnn3C(C)C)C(C3CC3)C3CC3)c(F)c2)C1` (stereo partly drawn) [Compound 136, N-((2S)-1-((4-((2S)-1-(3-acetamidopyrrolidin-1-yl)-1-oxopropan-2-yl)-2-fluorophenyl)amino)-3,3-dicyclopropyl-1-oxopropan-2-yl)-1-isopropyl-1H-pyrazole-5-carboxamide], the half-maximal inhibitory concentration (IC50) was over 1000 nM.

Turning to `CC(C(=O)NCC(F)(F)F)c1cc(F)c(NC(=O)[C@@H](NC(=O)c2ccnn2C(C)C)C(C2CC2)C2CC2)cc1C1CC1` (single isomer, unassigned) [Compound 127], the IC50 was under 100 nM.

For `CCn1nccc1C(=O)N[C@H](C(=O)Nc1c(F)cc(C(C)C(=O)NCC(F)(F)F)cc1F)C(C1CC1)C1CC1` (single isomer, unassigned) [Compound 171], the IC50 is 100 to 1000 nM.

Regarding `CC(C(=O)NCC(F)(F)F)c1cc(F)c(NC(=O)[C@@H](NC(=O)c2ccnn2C(C)C)C(C2CC2)C2CC2)cc1C(N)=O` (single isomer, unassigned) [Compound 117], the IC50 lay within 100 to 1000 nM.

Take `CC(C(=O)NC1CCC1(F)F)c1cc(F)c(NC(=O)[C@@H](NC(=O)c2ccnn2C(C)C)C(C2CC2)C2CC2)cc1C(F)(F)F` (single isomer, unassigned) [Compound 231]: the IC50 lay within 100 to 1000 nM.

As for `CCN(CC(F)(F)F)C(=O)C(C)c1ccc(NC(=O)[C@@H](NC(=O)c2ccnn2CC)C2CCCCCC2)c(F)c1` (single isomer, unassigned) [Compound 69], the IC50 was over 1000 nM.

As for `COc1cc(NC(=O)[C@@H](NC(=O)c2ccnn2C(C)C)C(C2CC2)C2CC2)c(F)cc1C(C)C(=O)N1CC(O)CC1C(F)(F)F` (single isomer, unassigned) [Compound 212], the 50% inhibitory concentration (IC50) was under 100 nM.

`CC(C(=O)NCC(F)(F)F)c1cc(F)c(NC(=O)[C@@H](NC(=O)c2ccnn2C(C)C)C(C2CC2)C2CC2)cc1C1CC1` (single isomer, unassigned) [Compound 126]: the IC50 was in the range of 100 to 1000 nM.

On to `CCOC(=O)Nc1cc(NC(=O)[C@@H](NC(=O)c2ccnn2C(C)C)C(C2CC2)C2CC2)c(F)cc1C(C)C(=O)NCC(F)(F)F` (single isomer, unassigned) [Compound 158], for which the concentration for half-maximal inhibition (IC50) was under 100 nM.

With `CCn1nccc1C(=O)N[C@H](C(=O)Nc1cc(C)c(C(C)C(=O)NCC(F)(F)F)cc1F)C1CCC(F)(F)CC1` (some centres unmarked) [Compound 217], the IC50 is over 1000 nM.

As for `CC(C)n1nccc1C(=O)N[C@H](C(=O)Nc1ccc([C@H](C)C(=O)NCc2ccccc2C(F)(F)F)cc1F)C(C1CC1)C1CC1` [Compound 36, N-((S)-1.1-dicyclopropyl-3-((2-fluoro-4-((S)-1-oxo-1-((2-(trifluoromethyl)benzyl)amino)propan-2-yl)phenyl)amino)-3-oxopropan-2-yl)-1-isopropyl-1H-pyrazole-5-carboxamide], the IC50 is over 1000 nM.

Regarding `CC(C)n1nccc1C(=O)N[C@H](C(=O)Nc1ccc([C@H](C)C(=O)NCC(N(C)C)C(F)(F)F)cc1F)C(C1CC1)C1CC1` (stereo partly drawn) [Compound 32, N-((2S)-1.1-dicyclopropyl-3-((4-((2S)-1-((2-(dimethylamino)-3,3,3-trifluoropropyl)amino)-1-oxopropan-2-yl)-2-fluorophenyl)amino)-3-oxopropan-2-yl)-1-isopropyl-1H-pyrazole-5-carboxamide], the IC50 was over 1000 nM.

Turning to `CC(C)n1nccc1C(=O)N[C@H](C(=O)Nc1ccc([C@H](C)C(=O)N2CCC(N)C2)cc1F)C(C1CC1)C1CC1` (stereo partly drawn) [Compound 132, N-((2S)-1-((4-((2S)-1-(3-aminopyrrolidin-1-yl)-1-oxopropan-2-yl)-2-fluorophenyl)amino)-3,3-dicyclopropyl-1-oxopropan-2-yl)-1-isopropyl-1H-pyrazole-5-carboxamide], the IC50 is over 1000 nM.

In the case of `CCn1nccc1C(=O)N[C@H](C(=O)Nc1cc(C)c(C(C)C(=O)N(C)CC(F)(F)F)cc1F)C1CCC(F)(F)CC1` (some centres unmarked) [Compound 218], the IC50 is under 100 nM.

As to `CC(C)n1nccc1C(=O)N[C@H](C(=O)Nc1ccc([C@H](C)C(=O)NC(CO)C(F)(F)F)cc1F)C(C1CC1)C1CC1` (single isomer, unassigned) [Compound 29], the half-maximal inhibitory concentration (IC50) was under 100 nM.

As for `COCc1cc(NC(=O)[C@@H](NC(=O)c2ccnn2C(C)C)C(C2CC2)C2CC2)c(F)cc1C(C)C(=O)NCC(F)(F)F` (single isomer, unassigned) [Compound 125], the concentration for half-maximal inhibition (IC50) is over 1000 nM.

Regarding `COc1cc(NC(=O)[C@@H](NC(=O)c2ccnn2C)C(C2CC2)C2CC2)c(F)cc1C(C)C(=O)N(C)CC(F)(F)F` (some centres unmarked) [Compound 179], the 50% inhibitory concentration (IC50) is under 100 nM.

As to `CCn1nccc1C(=O)N[C@H](C(=O)Nc1ccc([C@H](C)C(=O)N2CCC[C@@H]2C(F)(F)F)cc1F)C(C1CC1)C1CC1` [Compound 9, N-((S)-1,1-dicyclopropyl-3-((2-fluoro-4-((S)-1-oxo-1-((R)-2-(trifluoromethyl)pyrrolidin-1-yl)propan-2-yl)phenyl)amino)-3-oxopropan-2-yl)-1-ethyl-1H-pyrazole-5-carboxamide], the IC50 is over 1000 nM.

As to `CCn1nccc1C(=O)N[C@H](C(=O)Nc1cc(C)c(C(C)C(=O)N(C)CC(F)(F)F)cc1F)C(C1CC1)C1CC1` (single isomer, unassigned) [Compound 76], the IC50 was under 100 nM.

For the compound `CCNC(=O)C(C)c1cc(F)c(NC(=O)[C@@H](NC(=O)c2ccnn2CC)C(C2CC2)C2CC2)cc1C` (some centres unmarked) [Compound 244], the concentration for half-maximal inhibition (IC50) is over 1000 nM.

As to `CCn1nccc1C(=O)N[C@H](C(=O)Nc1ccc(C(COC)C(=O)N(C)CC(F)(F)F)cc1F)C1CCCCCC1` (single isomer, unassigned) [Compound 103], the 50% inhibitory concentration (IC50) was under 100 nM.

Consider `CC(C)n1nccc1C(=O)N[C@H](C(=O)Nc1ccc([C@H](C)C(=O)NC(C(N)=O)C(F)(F)F)cc1F)C(C1CC1)C1CC1` (stereo partly drawn) [Compound 63, N-((2S)-1-((4-((2S)-1-((3-amino-1,1-trifluoro-3-oxopropan-2-yl)amino)-1-oxopropan-2-yl)-2-fluorophenyl)amino)-3,3-dicyclopropyl-1-oxopropan-2-yl)-1-isopropyl-1H-pyrazole-5-carboxamide], for which the 50% inhibitory concentration (IC50) was under 100 nM.

As for `COC(=O)Nc1cc(NC(=O)[C@@H](NC(=O)c2ccnn2C(C)C)C(C2CC2)C2CC2)c(F)cc1C(C)C(=O)NCC(F)(F)F` (single isomer, unassigned) [Compound 161], the IC50 was under 100 nM.

`CCOC(=O)Nc1cc(NC(=O)[C@@H](NC(=O)c2ccnn2C(C)C)C(C2CC2)C2CC2)c(F)cc1C(C)C(=O)NCC(F)(F)F` (some centres unmarked) [Compound 255]: the IC50 is over 1000 nM.

As to `CC(C)n1nccc1C(=O)N[C@H](C(=O)Nc1ccc([C@H](C)C(=O)NC2CC2)cc1F)C(C1CC1)C1CC1` [Compound 16, N-((S)-1,1-dicyclopropyl-3-((4-((S)-1-(cyclopropylamino)-1-oxopropan-2-yl)-2-fluorophenyl)amino)-3-oxopropan-2-yl)-1-isopropyl-1H-pyrazole-5-carboxamide], the 50% inhibitory concentration (IC50) is over 1000 nM.

Turning to `COc1cc(NC(=O)[C@@H](NC(=O)c2ccnn2C(C)C)C(C2CC2)C2CC2)c(F)cc1C(C)C(=O)NC(CO)C(F)(F)F` (single isomer, unassigned) [Compound 180], the IC50 is under 100 nM.
